Here are results for 30 compounds from patent US4816472A, “Derivatives of 19,20-Bis-nor-prostanoic acid with antiulcer and anorectic activity, process for their preparation and pharmaceutical compositions thereof” (Istituto Biochemico Italiano Giovanni Lorenzini S.p.A., priority 1985, dated 1989).

Test [1] has as its system aspirin-induced ulcers in the rat. The test is described as follows: Aspirin induced gastric ulcers in the rat. The format is in vivo. The conditions noted are these: 200 mg/kg of drug. How it is done: (§1) The anitulcer activity of these derivatives was evaluated on ulcers induced by the administration of ethanol, hydrochloric acid and sodium hydroxide in the rat, also on gastric ulcers induced by aspirin in the rat, and on their influence on gastric secretions in the rat.
(4) Aspirin induced gastric ulcers in the rat:
For carrying out this test, the method described by H. A. Carmichael, L. M. Nelson, R. I. Russel in Gastroenterology 74, 1229 (1978) is used, the disclosure of which is incorporated herein by reference.

For test [2], the system named is NaOH induced ulcers in the rat. The test is described as follows: Sodium hydroxide induced ulcers in the rat. The format is in vivo. How it is done: as §1
(3) Sodium hydroxide induced ulcers in the rat:
Also this test is performed in accordance with the method described by A. Robert et al, in Gastroenterology, 77,433 (1979), the disclosure of which is incorporated herein by reference.

The subject of test [3] is gastric depletion in the rat. The test is described as follows: Gastric depletion in the rat. The format is in vivo. How it is done: Gastric depletion in the rat.
Rats of both sexes and mean weight of 180-200 g are used. The animals are subjected to fasting for 24 hours but have free access to water up to 3 hours prior to the test.
Preparation of phenyl red solution: 50 mg of phenyl red is mixed with 100 ml of a 1.5% methyl cellulose solution and shaken for 5 hours.
1.5 ml per rat is administered irrespective of weight.
The rats are sacrificed by cervix translocation: the stomach is taken out after ligaturing the cardias and pilorus.
The entire stomach and contents are placed in the container of a homogenizer with 50 ml of 0.1N NaOH. They are homogenized for 2 minutes at a maximum velocity. They homogenate is transferred to a test-tube and left to settle for one hour.
5 ml of the supernatant is taken out and put into a centrifuge tube and mixed with 0.5 ml of 20% (w/v) trichloroacetic acid. The tube is centrifuged at 2500 rpm for 20 min. The entire supernatant is taken and mixed with 4 ml of 0.4N NaOH, and its absorbance is measured at 560λ.
Gastric depletion is calculated according to the following formula:
(1-sample absorbance/standard absorbance)×100
As "standard absorbance" is considered the mean value of spectophotometric measurement of 4 animals sacrificed immediately after administering phenyl red.

Test [4] relates to ethanol induced ulcers in the rat. The test is described as follows: Ethanol induced ulcers in the rat. Type of test: in vivo. How it is done: as §1
(1) Ethanol induced ulcers in the rat:
The method used is that described by A. Robert et al, in Gastroenterology 77,433 (1979), the disclosure of which is incorporated herein by reference.

The subject of test [5] is HCl induced ulcers in the rat. Description: Hydrochloric acid induced ulcers in the rat. Type of test: in vivo. How it is done:
as §1
(2) Hydrochloric acid induced ulcers in the rat:
The method used for this test is that described by A. Robert et al, in Gastroenterology, 77,433, (1979), the disclosure of which is incorporated herein by reference.

In test [6] the test system is gastric secretion in the rat. The test is described as follows: Gastric secretion in the rat. Type of test: in vivo, Sprague-Dawley rats. How it is done: as §1
(5) Gastric secretion in the rat:
Sprague-Dawley rats of both sexes are used for this test. The gastric secretion is rated according to the method described by H. Shay et al in Gastroenterology 5,43 (1945) the disclosure of which is incorporated herein by reference.

For `CCCCCCC1CCC(NC(C)C)C1CCCCCCC(=O)O` (stereo not drawn) [drawing 29], the “Percent inhibition of aspirin-induced ulcers in the rat” value in test [1] is recorded as 63%.
In the case of `CCCCCCC1CCC(NC(C)=O)C1CCCCCCC(=O)O` (stereo not drawn) [drawing 24], the results for the “Percent inhibition of NaOH induced ulcers in the rat” value in test [2] (12.5 mg/kg), in test [2] (25 mg/kg) and in test [2] (50 mg/kg) were 7%, 19% and 59%, respectively.
Turning to `CCCCCCC1CCC(NC(C)C)C1CCCCCCC(=O)O` (stereo not drawn) [drawing 41], the “inhibition values of gastric depletion” value in test [3] (50 mg/kg) is 14%.
Regarding `CCCCCCC1CCC(N(C)C)C1CCCCCCC(=O)O` (stereo not drawn) [drawing 10], the “Percent inhibition of ethanol induced ulcers in the rat” value in test [4] (2.5 mg/kg) is 24%; in test [4] (5 mg/kg), 43%; in test [4] (10 mg/kg), 62%; in test [4] (50 mg/kg), 97%; in test [4] (100 mg/kg), 91%.
Consider `CCCCCCC1CCC(NC)C1CCCCCCC(=O)O` (stereo not drawn) [drawing 15], for which the “Percent inhibition of HCl induced ulcers in the rat” value in test [5] (25 mg/kg) was found to be 40%; in test [5] (50 mg/kg), 49%; in test [5] (100 mg/kg) it was 66%.
Regarding `CCCCCCC1CCC(N)C1CCCCCCC(=O)O` (stereo not drawn) [drawing 20], the entries for the “Percent inhibition of NaOH induced ulcers in the rat” value in test [2] (5 mg/kg), in test [2] (10 mg/kg) and in test [2] (25 mg/kg) were 37%, 54% and 80%, respectively.
Regarding `CCCCCCC1CCC(N)C1CCCCCCC(=O)O` (stereo not drawn) [drawing 8], the “Percent inhibition of ethanol induced ulcers in the rat” value was determined as 40% in test [4] (2.5 mg/kg); 50% in test [4] (5 mg/kg); 70% in test [4] (10 mg/kg); 67% in test [4] (25 mg/kg); 88% in test [4] (50 mg/kg).
Regarding `CCCCCCC1CCC(NC(C)=O)C1CCCCCCC(=O)O` (stereo not drawn) [drawing 12], the “Percent inhibition of ethanol induced ulcers in the rat” value in test [4] (10 mg/kg) is given as 25%; in test [4] (100 mg/kg), 78%.
Turning to `CCCCCCC1CCC(O)C1CCCCCCC(=O)O` (stereo not drawn) [drawing 13], the “Percent inhibition of ethanol induced ulcers in the rat” value in test [4] (50 mg/kg) amounted to 9%; in test [4] (100 mg/kg) it was 37%.
As for `CCCCCCC1CCC(NC)C1CCCCCCC(=O)O` (stereo not drawn) [drawing 9], the “Percent inhibition of ethanol induced ulcers in the rat” value in test [4] (5 mg/kg) worked out at 44%; in test [4] (10 mg/kg) it was 67%; in test [4] (25 mg/kg) it was 86%; in test [4] (50 mg/kg), 91%; in test [4] (100 mg/kg) it was 91%.
`CCCCCCC1CCC(NC)C1CCCCCCC(=O)O` (stereo not drawn) [drawing 33]: the “Percent inhibition of gastric secretion in the rat” value in test [6] (25 mg/kg, 2 h after treatment) amounted to 0%; in test [6] (25 mg/kg, 4 h after treatment), 40%; in test [6] (50 mg/kg, 2 h after treatment), 54%; in test [6] (50 mg/kg, 4 h after treatment), 49%; in test [6] (100 mg/kg, 2 h after treatment) it was 79%; in test [6] (100 mg/kg, 4 h after treatment), 66%.
With `CCCCCCC1CCC(O)C1CCCCCCC(=O)O` (stereo not drawn) [drawing 19], the “Percent inhibition of HCl induced ulcers in the rat” value is 15% in test [5] (25 mg/kg), 45% in test [5] (100 mg/kg) and 63% in test [5] (200 mg/kg).
On to `CCCCCCC1CCC(NC(C)=O)C1CCCCCCC(=O)O` (stereo not drawn) [drawing 42], for which the “inhibition values of gastric depletion” value in test [3] (50 mg/kg) was 78%.
Regarding `CCCCCCC1CCC(NC(C)C)C1CCCCCCC(=O)O` (stereo not drawn) [drawing 11], the “Percent inhibition of ethanol induced ulcers in the rat” value came to 9% in test [4] (10 mg/kg), 34% in test [4] (25 mg/kg) and 65% in test [4] (50 mg/kg).
`CCCCCCC1CCC(N(C)C)C1CCCCCCC(=O)O` (stereo not drawn) [drawing 16]: the figures for the “Percent inhibition of HCl induced ulcers in the rat” value in test [5] (25 mg/kg), in test [5] (50 mg/kg) and in test [5] (100 mg/kg) were 23%, 55% and 63%, respectively.
For `CCCCCCC1CCC(NC(C)C)C1CCCCCCC(=O)O` (stereo not drawn) [drawing 23], the “Percent inhibition of NaOH induced ulcers in the rat” value in test [2] (12.5 mg/kg) is 13%; in test [2] (25 mg/kg) it was 46%; in test [2] (50 mg/kg) it was 54%.
Take `CCCCCCC1CCC(N(C)C)C1CCCCCCC(=O)O` (stereo not drawn) [drawing 40]: the “inhibition values of gastric depletion” value in test [3] (50 mg/kg) was 55%.
Regarding `CCCCCCC1CCC(N)C1CCCCCCC(=O)O` (stereo not drawn) [drawing 38], the “inhibition values of gastric depletion” value was 18% in test [3] (25 mg/kg), 80% in test [3] (50 mg/kg) and 80% in test [3] (100 mg/kg).
In the case of `CCCCCCC1CCC(NC(C)C)C1CCCCCCC(=O)O` (stereo not drawn) [drawing 35], the “Percent inhibition of gastric secretion in the rat” value in test [6] (25 mg/kg, 2 h after treatment) is recorded as 35%; in test [6] (25 mg/kg, 4 h after treatment), 0%; in test [6] (50 mg/kg, 2 h after treatment) it was 56%; in test [6] (50 mg/kg, 4 h after treatment), 46%; in test [6] (100 mg/kg, 2 h after treatment), 37%; in test [6] (100 mg/kg, 4 h after treatment) it was 54%.
For `CCCCCCC1CCC(O)C1CCCCCCC(=O)O` (stereo not drawn) [drawing 37], the “Percent inhibition of gastric secretion in the rat” value is 0% in test [6] (25 mg/kg, 2 h after treatment); 15% in test [6] (25 mg/kg, 4 h after treatment); 30% in test [6] (50 mg/kg, 2 h after treatment); 50% in test [6] (100 mg/kg, 2 h after treatment); 45% in test [6] (100 mg/kg, 4 h after treatment).
For the compound `CCCCCCC1CCC(N(C)C)C1CCCCCCC(=O)O` (stereo not drawn) [drawing 34], the “Percent inhibition of gastric secretion in the rat” value in test [6] (25 mg/kg, 2 h after treatment) came out at 74%; in test [6] (25 mg/kg, 4 h after treatment), 23%; in test [6] (50 mg/kg, 2 h after treatment), 75%; in test [6] (50 mg/kg, 4 h after treatment), 55%; in test [6] (100 mg/kg, 2 h after treatment) it was 82%; in test [6] (100 mg/kg, 4 h after treatment) it was 63%.
With `CCCCCCC1CCC(NC(C)C)C1CCCCCCC(=O)O` (stereo not drawn) [drawing 17], the “Percent inhibition of HCl induced ulcers in the rat” value was 0% in test [5] (25 mg/kg), 46% in test [5] (50 mg/kg) and 54% in test [5] (100 mg/kg).
In the case of `CCCCCCC1CCC(NC(C)=O)C1CCCCCCC(=O)O` (stereo not drawn) [drawing 18], the entries for the “Percent inhibition of HCl induced ulcers in the rat” value in test [5] (25 mg/kg) and in test [5] (50 mg/kg) were 15% and 66%, respectively.
On to `CCCCCCC1CCC(NC(C)=O)C1CCCCCCC(=O)O` (stereo not drawn) [drawing 36], for which the “Percent inhibition of gastric secretion in the rat” value in test [6] (25 mg/kg, 2 h after treatment) was 51%; in test [6] (25 mg/kg, 4 h after treatment), 0%; in test [6] (50 mg/kg, 2 h after treatment), 48%; in test [6] (50 mg/kg, 4 h after treatment) it was 12%; in test [6] (100 mg/kg, 2 h after treatment), 70%; in test [6] (100 mg/kg, 4 h after treatment), 59%.
On to `CCCCCCC1CCC(N)C1CCCCCCC(=O)O` (stereo not drawn) [drawing 14], for which the “Percent inhibition of HCl induced ulcers in the rat” value in test [5] (50 mg/kg) came to 68%; in test [5] (100 mg/kg), 89%; in test [5] (200 mg/kg), 91%.
Consider `CCCCCCC1CCC(NC)C1CCCCCCC(=O)O` (stereo not drawn) [drawing 39], for which the “inhibition values of gastric depletion” value in test [3] (50 mg/kg) was 33%.
As for `CCCCCCC1CCC(NC)C1CCCCCCC(=O)O` (stereo not drawn) [drawing 21], the “Percent inhibition of NaOH induced ulcers in the rat” value in test [2] (12.5 mg/kg) is reported as 81%; in test [2] (25 mg/kg), 87%.
`CCCCCCC1CCC(N(C)C)C1CCCCCCC(=O)O` (stereo not drawn) [drawing 22]: the “Percent inhibition of NaOH induced ulcers in the rat” value was 52% in test [2] (12.5 mg/kg), 63% in test [2] (25 mg/kg) and 74% in test [2] (50 mg/kg).
For the compound `CCCCCCC1CCC(N)C1CCCCCCC(=O)O` (stereo not drawn) [drawing 32], the “Percent inhibition of gastric secretion in the rat” value came out at 38% in test [6] (12.5 mg/kg, 2 h after treatment); 87% in test [6] (25 mg/kg, 2 h after treatment); 88% in test [6] (50 mg/kg, 2 h after treatment); 68% in test [6] (50 mg/kg, 4 h after treatment); 77% in test [6] (100 mg/kg, 2 h after treatment); 89% in test [6] (100 mg/kg, 4 h after treatment).
For `CCCCCCC1CCC(O)C1CCCCCCC(=O)O` (stereo not drawn) [drawing 25], the “Percent inhibition of NaOH induced ulcers in the rat” value in test [2] (50 mg/kg) is recorded as 53%; in test [2] (100 mg/kg) it was 84%; in test [2] (200 mg/kg), 92%.
